Read-outs that look alike come from different tables or passages of the source. Marks after values point to notes of the source that are not given here. Residues, ends and D or L forms follow the SMILES beside them.
Key:
[1] = test system: E. coli 25922 (NCIM 2931); format: cell-based, Escherichia coli; details: for MIC (*50% inhibition): starred value: 50% inhibition only
Method: (§1) Antimicrobial activity of the synthesized peptides was determined by broth microdilution assay and evaluated based on minimum inhibitory concentration (MIC). […] Gram negative microorganisms (Escherichia coli ATCC 8739, Escherichia coli ATCC 25922) were grown in Mueller-Hinton (MH) broth at 37 °C for 18h on a shaker to obtain an OD600nm of 0.8. Bacterial cultures were diluted in MH broth to obtain a cell density of 10^5–10^6 c.f.u/ml. Different concentrations of peptides, ranging from 1–100 μM were serially diluted in MH broth and inoculated with bacterial cultures in 1:1 ratio in sterile 96-well microtiter plates. The plates were incubated at 37 °C for 18h and antimicrobial activity was evaluated as MIC of the peptides by determining the absorbance at 600nm. The microorganisms were obtained from National Collection of Industrial Microorganisms (NCIM), Pune.

E. coli 8739 (NCIM 2065) = format: cell-based, Escherichia coli; details: for inhibition at 100 microM: 8739 (NCIM 2065, 18 h, 100 microM); for MIC (*50% inhibition): starred value: 50% inhibition only
Method: as §1

[2] = Escherichia coli ATCC 25922, MH broth, 37 °C 18h, absorbance at 600nm, average range, triplicates of three independent experiments
[3] = Escherichia coli ATCC 8739, MH broth, 37 °C 18h, absorbance at 600nm, average range, triplicates of three independent experiments
[4] = Escherichia coli ATCC 25922, complete growth inhibition, MH broth, 10^5–10^6 c.f.u/ml, peptides 1–100 μM, 37 °C 18h, absorbance at 600nm, average range, triplicates of three independent experiments
[5] = Escherichia coli ATCC 8739, complete growth inhibition, MH broth, 10^5–10^6 c.f.u/ml, peptides 1–100 μM, 37 °C 18h, absorbance at 600nm, average range, triplicates of three independent experiments

Compound | antimicrobial activity (in words) ([1]; Escherichia coli ATCC 25922) | MIC (E. coli 8739 (NCIM 2065); 8739 (NCIM 2065, 18 h)) [µM] | antimicrobial activity (in words) (E. coli 8739 (NCIM 2065); Escherichia coli ATCC 8739) | MIC (*50% inhibition) [1, 2] | inhibition at 100 microM (E. coli 8739 (NCIM 2065)) [%] | MIC (*50% inhibition) (E. coli 8739 (NCIM 2065); [3]) | MIC [1, 4] | MIC (E. coli 8739 (NCIM 2065); [5]) | also measured
CC[C@H](C)[C@H](NC(=O)CNC(=O)[C@H](CC(=O)O)NC(=O)[C@H](CCCNC(=N)N)NC(=O)[C@@H](NC(=O)[C@H](CC(N)=O)NC(=O)[C@H](CCCNC(=N)N)NC(=O)CNC(=O)[C@@H](NC(=O)[C@H](CCCCN)NC(=O)[C@H](CCC(=O)O)NC(=O)[C@@H](NC(=O)[C@H](CCCCN)NC(=O)[C@H](CCCCN)NC(=O)[C@H](Cc1ccccc1)NC(=O)[C@@H](NC(=O)[C@H](CCCCN)NC(C)=O)[C@@H](C)CC)[C@@H](C)CC)C(C)C)C(C)C)C(=O)N[C@H](C(=O)N[C@@H](CCCCN)C(=O)N[C@@H](C)C(=O)NCC(=O)N1CCC[C@H]1C(=O)N[C@@H](C)C(=O)N[C@H](C(=O)N[C@@H](C)C(=O)N[C@H](C(=O)N[C@H](C(=O)N[C@@H](CCC(=O)O)C(=O)N[C@@H](CCC(N)=O)C(=O)N[C@@H](C)C(N)=O)C(C)C)C(C)C)C(C)C)[C@@H](C)CC [CecH] (Ac-KIFKKIEKVGRNVRDGIIKAGPAVAVVEQA-NH2) | activity similar to that of gentamycin | 3.125 to 6.25 | activity similar to that of gentamycin | – | – | – | – | – | MIC ([1]; 25922 (NCIM 2931, 18 h)): 6.25 to 12.5 µM
CSCC[C@H](NC(=O)[C@H](CCCNC(=N)N)NC(=O)[C@H](CCC(N)=O)NC(=O)[C@H](Cc1c[nH]c2ccccc12)NC(=O)[C@H](CO)NC(=O)[C@H](CCC(N)=O)NC(=O)[C@H](CCCCN)NC(C)=O)C(=O)N[C@@H](CCCNC(=N)N)C(=O)N[C@@H](CCCCN)C(=O)N[C@@H](CC(C)C)C(=O)N[C@@H](C)C(=O)N[C@@H](CC(C)C)C(=O)N[C@@H](CCCCN)C(=O)N[C@@H](CCCNC(=N)N)C(N)=O [LactP1] (Ac-KQSWQRMRKLALKR-NH2) | – | – | – | 50–100* microM | 50 | 50–100* microM | – | – | inhibition at 100 microM ([1]; 25922 (NCIM 2931, 18 h, 100 microM)): 50%
CSCC[C@H](NC(=O)[C@H](CCCNC(=N)N)NC(=O)[C@H](CCC(N)=O)NC(=O)[C@H](Cc1c[nH]c2ccccc12)NC(=O)[C@H](CO)NC(=O)[C@H](CCC(N)=O)NC(=O)[C@H](CCCCN)NC(=O)[C@H](CC(C)C)NC(=O)[C@H](CCC(=O)O)NC(=O)[C@H](CCC(=O)O)NC(=O)[C@H](CCCNC(=N)N)NC(=O)[C@H](CCCNC(=N)N)NC(=O)[C@H](CCCNC(=N)N)NC(=O)[C@H](CCCNC(=N)N)NC(C)=O)C(=O)N[C@@H](CCCNC(=N)N)C(=O)N[C@@H](CCCCN)C(=O)N[C@@H](CC(C)C)C(=O)N[C@@H](C)C(=O)N[C@@H](CC(C)C)C(=O)N[C@@H](CCCCN)C(=O)N[C@@H](CCCNC(=N)N)C(N)=O [LactP2] (Ac-RRRREELKQSWQRMRKLALKR-NH2) | – | 50 to 100 | – | 50–100* microM | 100 | – | – | – | –
Gentamycin [reference compound] | – | – | – | – | – | – | 1.56 to 3.125 µM | 1.56 to 3.125 µM | –
PLSCRRKIGICVLIRCSGNMRQIGTCLGALVKCCR [DefH, 35-residue defensin family peptide retrieved using HMMs, Class II; N-acetylated, C-amidated] | – | – | – | – | – | 50–100* microM | NA (Did not show activity upto 100 microM) | – | –
WQRMRKL [LactP, N-acetylated, C-amidated] | lacks activity | – | lacks activity | – | – | – | NA (Did not show activity upto 100 microM) | NA (Did not show activity upto 100 microM) | –

From publication PMC4836297, “Leveraging family-specific signatures for AMP discovery and high-throughput annotation” (Scientific Reports, 2016)
